From the NIST ThermoML archive (doi:10.1016/j.fluid.2015.03.049)
Numbers after ± are expanded uncertainties.

Details: Liquid; for mass density: 101.33 kPa, Vibrating tube method; for Normal boiling temperature: Ebulliometric method (Recirculating still)

Compound | mass density (303.15 K) | Normal boiling temperature | mass density (298.15 K) | mass density (288.15 K)
COCOC [dimethoxymethane] | 848.59 ± 0.13 kg/m3 | 42.00 ± 0.2 °C |  | 
COC(=O)OC [dimethyl carbonate] |  | 90.00 ± 0.2 °C | 1063.3 ± 0.12 kg/m3 | 
COC=O [methyl methanoate] |  | 31.50 ± 0.2 °C |  | 980.82 ± 0.11 kg/m3
